Experimental data as given in ChEMBL document CHEMBL4808189, “The combination of sesamol and clofibric acid moieties leads to a novel potent hypolipidemic agent with antioxidant, anti-inflammatory and hepatoprotective activity” (Bioorg Med Chem Lett, 2021).
Activity calls are given as the source filed them. The calls are words filed in the database; no cut-off is given here.

Assays:
[1] = Acute toxicity in Kunming mouse assessed as change in body weight at 300 mg/kg, ig for 1 month; type: organism-based; details: in vivo, po, 730 h, time 1 months
[2] = Hepatotoxicity in Kunming mouse assessed as cell infiltration in central vein and inflammatory cell infiltration at 300 mg/kg, ig for 1 month by H and E staining based analysis; type: toxicity, organism-based; details: in vivo, po, 730 h, time 1 months
Mus musculus [3] = assay: Upregulation of Nrf2 protein expression in Kunming mouse liver nucleus at 300 mg/kg, ig for 1 month by western blot analysis; type: functional, organism-based; details: time 1.0 months
[4] = Hepatotoxicity in Kunming mouse assessed as induction of inflammatory response by measuring upregulation of TNF-alpha level in liver at 300 mg/kg, ig for 1 month by western blot analysis; type: toxicity, organism-based; details: in vivo, po, 730 h, time 1 months
[5] = Hepatotoxicity in Kunming mouse assessed as increase in plasma alkaline phosphatase level at 300 mg/kg, ig for 1 month; type: toxicity, organism-based; details: in vivo, po, 730 h, time 1 months
[6] = Hepatotoxicity in Kunming mouse assessed as increase in plasma aspartate transaminase level at 300 mg/kg, ig for 1 month; type: toxicity, organism-based; details: in vivo, po, 730 h, time 1 months
[7] = Hepatotoxicity in Kunming mouse assessed as induction of oxidative stress by measuring decrease in plasma GSH level at 300 mg/kg, ig for 1 month; type: toxicity, organism-based; details: in vivo, po, 730 h, time 1 months
[8] = Hepatotoxicity in Kunming mouse assessed as increase in hepatic weight at 300 mg/kg, ig for 1 month; type: toxicity, organism-based; details: in vivo, po, 730 h, time 1 months
[9] = Hepatotoxicity in Kunming mouse assessed as increase in plasma total protein level at 300 mg/kg, ig for 1 month; type: toxicity, organism-based; details: in vivo, po, 730 h, time 1 months
[10] = Hepatotoxicity in Kunming mouse assessed as induction of inflammatory response by measuring upregulation of IL-6 level in liver at 300 mg/kg, ig for 1 month by western blot analysis; type: toxicity, organism-based; details: in vivo, po, 730 h, time 1 months
[11] = Hepatotoxicity in Kunming mouse assessed as induction of oxidative stress by measuring decrease in plasma superoxide dismutase level at 300 mg/kg, ig for 1 month; type: toxicity, organism-based; details: in vivo, po, 730 h, time 1 months
[12] = Hepatotoxicity in Kunming mouse assessed as increase in liver coefficient at 300 mg/kg, ig for 1 month; type: toxicity, organism-based; details: in vivo, po, 730 h, time 1 months
[13] = Hepatotoxicity in Kunming mouse assessed as induction of oxidative stress by measuring decrease in plasma CAT level at 300 mg/kg, ig for 1 month; type: toxicity, organism-based; details: in vivo, po, 730 h, time 1 months
Mus musculus [14] = assay: Upregulation of HO-1 protein expression in Kunming mouse liver at 300 mg/kg, ig for 1 month by western blot analysis; type: functional, organism-based; details: time 1.0 months
Mus musculus [15] = assay: Hypolipidemic activity in TritonWR1339-induced hyperlipidemic Kunming mouse model assessed as reduction in plasma TC level at 0.362 mmol/kg, ig administered for 7 days; type: functional; details: po, 168 h, time 7 day
[16] = Upregulation of p-NF-kB-p65 protein expression in Kunming mouse liver at 300 mg/kg, ig for 1 month by western blot analysis; type: ADME, organism-based; details: in vivo, po, 730 h, time 1 months
Mus musculus [17] = assay: Hypolipidemic activity in TritonWR1339-induced hyperlipidemic Kunming mouse model assessed as reduction in plasma TG level at 0.362 mmol/kg, ig administered for 7 days; type: functional; details: po, 168 h, time 7 day
[18] = Hepatotoxicity in Kunming mouse assessed as large areas of hepatocyte swelling, necrosis, loose cytoplasm, nuclear degeneration and dissolution at 300 mg/kg, ig for 1 month by H and E staining based analysis; type: toxicity, organism-based; details: in vivo, po, 730 h, time 1 months
[19] = Hepatotoxicity in Kunming mouse assessed as increase in plasma alanine aminotransferase level at 300 mg/kg, ig for 1 month; type: toxicity, organism-based; details: in vivo, po, 730 h, time 1 months
[20] = Hepatotoxicity in Kunming mouse assessed as induction of oxidative stress by measuring increase in plasma MDA level at 300 mg/kg, ig for 1 month; type: toxicity, organism-based; details: in vivo, po, 730 h, time 1 months
[21] = Hepatotoxicity in Kunming mouse assessed as induction of inflammatory response by measuring upregulation of TNF-alpha level in liver at 412 mg/kg, ig for 1 month by western blot analysis; type: toxicity, organism-based; details: in vivo, po, 730 h, time 1 months
[22] = Hepatotoxicity in Kunming mouse assessed as increase in plasma total protein level at 412 mg/kg, ig for 1 month; type: toxicity, organism-based; details: in vivo, po, 730 h, time 1 months
[23] = Hepatotoxicity in Kunming mouse assessed as induction of inflammatory response by measuring upregulation of IL-6 level in liver at 412 mg/kg, ig for 1 month by western blot analysis; type: toxicity, organism-based; details: in vivo, po, 730 h, time 1 months
[24] = Upregulation of p-NF-kB-p65 protein expression in Kunming mouse liver at 412 mg/kg, ig for 1 month by western blot analysis; type: ADME, organism-based; details: in vivo, po, 730 h, time 1 months
[25] = Hepatotoxicity in Kunming mouse assessed as induction of oxidative stress by measuring decrease in plasma CAT level at 412 mg/kg, ig for 1 month; type: toxicity, organism-based; details: in vivo, po, 730 h, time 1 months
Mus musculus [26] = assay: Upregulation of Nrf2 protein expression in Kunming mouse liver nucleus at 412 mg/kg, ig for 1 month by western blot analysis; type: functional, organism-based; details: time 1.0 months
[27] = Hepatotoxicity in Kunming mouse assessed as increase in plasma alkaline phosphatase level at 412 mg/kg, ig for 1 month; type: toxicity, organism-based; details: in vivo, po, 730 h, time 1 months
Mus musculus [28] = assay: Upregulation of HO-1 protein expression in Kunming mouse liver at 412 mg/kg, ig for 1 month by western blot analysis; type: functional, organism-based; details: time 1.0 months
[29] = Hepatotoxicity in Kunming mouse assessed as hepatocyte swelling at 412 mg/kg, ig for 1 month by H and E staining based analysis; type: toxicity, organism-based; details: in vivo, po, 730 h, time 1 months
[30] = Hepatotoxicity in Kunming mouse assessed as induction of oxidative stress by measuring increase in plasma MDA level at 412 mg/kg, ig for 1 month; type: toxicity, organism-based; details: in vivo, po, 730 h, time 1 months
[31] = Hepatotoxicity in Kunming mouse assessed as increase in hepatic weight at 412 mg/kg, ig for 1 month; type: toxicity, organism-based; details: in vivo, po, 730 h, time 1 months
[32] = Hepatotoxicity in Kunming mouse assessed as induction of oxidative stress by measuring decrease in plasma superoxide dismutase level at 412 mg/kg, ig for 1 month; type: toxicity, organism-based; details: in vivo, po, 730 h, time 1 months
[33] = Hepatotoxicity in Kunming mouse assessed as increase in plasma aspartate transaminase level at 412 mg/kg, ig for 1 month; type: toxicity, organism-based; details: in vivo, po, 730 h, time 1 months
[34] = Hepatotoxicity in Kunming mouse assessed as increase in liver coefficient at 412 mg/kg, ig for 1 month; type: toxicity, organism-based; details: in vivo, po, 730 h, time 1 months
[35] = Hepatotoxicity in Kunming mouse assessed as cell infiltration in central vein and inflammatory cell infiltration at 412 mg/kg, ig for 1 month by H and E staining based analysis; type: toxicity, organism-based; details: in vivo, po, 730 h, time 1 months
[36] = Hepatotoxicity in Kunming mouse assessed as induction of oxidative stress by measuring decrease in plasma GSH level at 412 mg/kg, ig for 1 month; type: toxicity, organism-based; details: in vivo, po, 730 h, time 1 months
[37] = Hepatotoxicity in Kunming mouse assessed as increase in plasma alanine aminotransferase level at 412 mg/kg, ig for 1 month; type: toxicity, organism-based; details: in vivo, po, 730 h, time 1 months
[38] = Acute toxicity in Kunming mouse assessed as change in body weight at 412 mg/kg, ig for 1 month; type: organism-based; details: in vivo, po, 730 h, time 1 months

Q: For `CCOC(=O)C(C)(C)Oc1ccc(Cl)cc1` [CLOFIBRATE], which Activity [1] is on record?
A: Non-Toxic

Q: What about the Activity [2] of the same compound?
A: Toxic

Q: And the Activity (Mus musculus [3])?
A: inactive

Q: And the Activity [4]?
A: Toxic

Q: And the Activity [5]?
A: Toxic

Q: And the Activity [6]?
A: Toxic

Q: And the Activity [7]?
A: Toxic

Q: What about the Activity [8] of the same compound?
A: Toxic

Q: What about the Activity [9] of the same compound?
A: Toxic

Q: What about the Activity [10] of the same compound?
A: Toxic

Q: What about the Activity [11] of the same compound?
A: Toxic

Q: And the Activity [12]?
A: Toxic

Q: What about the Activity [13] of the same compound?
A: Toxic

Q: And the Activity (Mus musculus [14])?
A: inactive

Q: What about the inhibition in vivo at 362 µmol/kg (Mus musculus [15]) of the same compound?
A: 21.2%

Q: What about the Activity [16] of the same compound?
A: Toxic

Q: What about the inhibition in vivo at 362 µmol/kg (Mus musculus [17]) of the same compound?
A: 25.5%

Q: What about the Activity [18] of the same compound?
A: Toxic

Q: What about the Activity [19] of the same compound?
A: Toxic

Q: What about the Activity [20] of the same compound?
A: Toxic

Q: Which Activity [21] does the source give for `CC(C)(Oc1ccc(Cl)cc1)C(=O)Oc1ccc2c(c1)OCO2` here?
A: Non-Toxic

Q: And the Activity [22]?
A: Non-Toxic

Q: What about the Activity [23] of the same compound?
A: Non-Toxic

Q: And the Activity [24]?
A: Non-Toxic

Q: What about the Activity [25] of the same compound?
A: Non-Toxic

Q: What about the Activity (Mus musculus [26]) of the same compound?
A: Active

Q: What about the Activity [27] of the same compound?
A: Non-Toxic

Q: And the Activity (Mus musculus [28])?
A: Active

Q: What about the Activity [29] of the same compound?
A: Toxic

Q: What about the Activity [30] of the same compound?
A: Non-Toxic

Q: And the Activity [31]?
A: Non-Toxic

Q: What about the Activity [32] of the same compound?
A: Non-Toxic

Q: And the Activity [33]?
A: Non-Toxic

Q: And the Activity [34]?
A: Non-Toxic

Q: And the Activity [35]?
A: Non-Toxic

Q: And the inhibition in vivo at 362 µmol/kg (Mus musculus [15])?
A: 35.1%

Q: What about the Activity [36] of the same compound?
A: Toxic

Q: And the inhibition in vivo at 362 µmol/kg (Mus musculus [17])?
A: 38.6%

Q: And the Activity [37]?
A: Non-Toxic

Q: And the Activity [38]?
A: Non-Toxic
